According to patent publication US5409946A, “Isoxazole, isothiazole and pyrazole compounds that enhance cognitive function” (Abbott Laboratories, priority 1993, dated 1995):

What was measured:
[1] = tested on: anxiety induced by (-)-nicotine withdrawal; assay: Elevated plus-maze 48 hours after withdrawal of 14-day chronic (-)-nicotine; assay type: in vivo, rats; details: for TIME OPEN ARMS: chronic (-)-nicotine, mean ± SEM
Text: The mouse elevated plus-maze is a conflict test that probes anxiolytic activity of test compounds (Lister, Psychopharmacology, 1987, 92:180). It is based on the fact that exposure of mice to an elevated open arm leads to an avoidance response considerably stronger than that evoked by exposure to an enclosed arm. Compounds may be tested for their ability to modify the avoidance response of the animal to the open arm maze. […] The effect of such potential anti-anxiety drugs may be tested further in a withdrawal challenge test.
Elevated Plus-Maze: The procedure originally described by Pellow et al., for rats was used, with minor modifications (Pellow et al., J. Neurosci. Meth., 14: 149, 1985). The apparatus consisted of two open arms (50×10 cm) and two enclosed arms (50×10×40 cm) extending from a central platform (10×10 cm). It was mounted on a base raising 50 cm above the floor. Light levels on the open and enclosed arms were similar. The animals were placed in the center of the maze and the time spent in the open arms and the total distance traveled by the rat were recorded automatically by a camera mounted above the apparatus, then analyzed by computer (Videomex™ software, Columbus Instruments, Columbus, Ohio). All animals used were naive to the apparatus. Animals were injected i.p. with saline or the different drug doses, and submitted to the test 30 minutes later. The test lasted 5 minutes, and the apparatus was thoroughly cleaned after removal of the animal.
The pumps were removed on day 14 and the animals were tested in the plus-maze 48 hours later, at the time when a state of withdrawal-induced anxiety was present in the rats. On the test day i.p. doses of either saline or the compound of Example 2 were administered to the animals 30 minutes before the test. Data (Table 13) represent the mean ±SEM time spent in the open arms of the plus-maze of 8-16 rats.

muscarinic receptors = assay type: binding, rat; details: Table 2
Procedure: The potencies of ligand binding at central muscarinic binding sites were determined by analysis of competition with the specific muscarinic receptor radioligand [^3 H]-quinuclidinyl benzilate ([^3 H]-QNB). […] Competition between various concentrations of putative nicotinic ligand compounds and 0.2 nM [^3 H]-QNB was performed at 25° C. in an assay volume of 1 mL. After 75 minutes, the bound radioligand was separated by vacuum filtration on Whatman GF/B glass fiber filters. Non-specific binding was defined as radioactivity remaining in the presence of 10 μM atropine. Competition curves were analyzed for Ki values as described above for binding to the nicotinic receptor.

SMILES: Cc1cc([C@@H]2CCCN2C)on1.O=C(O)C(=O)O [Example 2, 3-Methyl-5-(1-methyl-2(S)-pyrrolidinyl)-isoxazole oxalate salt]
- effect on time spent in the open arms ([1]; 48 h after withdrawal of chronic (-)-nicotine): significant increase in the time spent in the open arms
- TIME OPEN ARMS ([1]; challenge 0.19 μmol/kg i.p.): 36.8 ± 12.5 s
- TIME OPEN ARMS ([1]; challenge 0.62 μmol/kg i.p., **p < 0.05 against chronic nicotine, saline-challenged): 73.6 ± 7.7 s
- TIME OPEN ARMS ([1]; challenge 1.9 μmol/kg i.p.): 43.1 ± 10.1 s
- Ki (muscarinic receptors): 160 µM
